Source: ChEMBL document CHEMBL1128950, “Synthesis and structure-activity relationships of 9-substituted acridines as endothelin-A receptor antagonists” (Bioorg Med Chem Lett, 1996)

Columns and labels:
Format in all cases: cell-based
[1] = biological target: T1, Endothelin receptor type B (Homo sapiens, UniProt P24530); experiment: Inhibition of binding of [125I]ET1 to cloned human Endothelin B receptor expressed in CHO-K1 cells up to 200 uM; non significant
T1 sequence (P24530 whole entry): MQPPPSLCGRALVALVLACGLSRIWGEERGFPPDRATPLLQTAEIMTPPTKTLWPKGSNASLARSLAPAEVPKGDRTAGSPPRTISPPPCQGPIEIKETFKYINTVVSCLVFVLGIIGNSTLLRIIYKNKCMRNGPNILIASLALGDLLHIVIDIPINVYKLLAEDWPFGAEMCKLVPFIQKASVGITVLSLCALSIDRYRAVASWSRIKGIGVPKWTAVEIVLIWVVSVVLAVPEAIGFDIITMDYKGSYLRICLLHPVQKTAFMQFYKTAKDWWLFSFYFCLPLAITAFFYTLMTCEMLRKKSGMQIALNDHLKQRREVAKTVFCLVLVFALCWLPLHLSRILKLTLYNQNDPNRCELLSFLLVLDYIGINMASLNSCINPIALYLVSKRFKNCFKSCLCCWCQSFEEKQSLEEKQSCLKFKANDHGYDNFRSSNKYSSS

[2] = biological target: T2, Endothelin-1 receptor (Homo sapiens, UniProt P25101); experiment: Inhibition of binding of [125I]ET1 to cloned human Endothelin A receptor expressed in LtK- cells
T2 sequence (P25101 whole entry): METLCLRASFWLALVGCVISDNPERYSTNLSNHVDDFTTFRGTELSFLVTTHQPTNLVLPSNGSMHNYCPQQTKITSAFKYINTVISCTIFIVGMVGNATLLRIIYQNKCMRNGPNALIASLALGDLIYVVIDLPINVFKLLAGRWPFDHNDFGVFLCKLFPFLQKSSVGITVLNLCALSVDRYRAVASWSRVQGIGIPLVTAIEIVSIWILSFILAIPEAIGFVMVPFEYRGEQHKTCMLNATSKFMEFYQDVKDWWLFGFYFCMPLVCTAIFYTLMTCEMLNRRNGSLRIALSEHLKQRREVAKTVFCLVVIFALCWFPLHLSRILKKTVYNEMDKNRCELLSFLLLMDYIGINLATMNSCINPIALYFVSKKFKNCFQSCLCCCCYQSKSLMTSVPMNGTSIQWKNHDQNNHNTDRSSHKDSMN

[3] = biological target: T1, Endothelin receptor type B; experiment: Compound was tested for inhibition of binding of [125I]ET1 to cloned human Endothelin B receptor expressed in CHO-K1 cells

SMILES	IC50 [1]	IC50 [2]	IC50 [3]
COC(=O)C(Cc1ccc2c(c1)OCO2)c1c2ccccc2nc2ccccc12 (centres undefined)	Not Active	> 25 µM	
O=C(OCc1ccc(Cl)cc1)C(c1ccc2c(c1)OCO2)c1c2ccccc2nc2ccccc12 (centres undefined)	Not Active	> 25 µM	
CC(C)(C)OC(=O)C(c1ccc2c(c1)OCO2)c1c2ccccc2nc2ccccc12 (centres undefined)	Not Active		
COc1ccc(COC(=O)C(c2ccc3c(c2)OCO3)c2c3ccccc3nc3ccccc23)cc1 (centres undefined)	Not Active		
COC(=O)C(c1ccc2c(c1)OCO2)C1c2ccccc2CCc2ccccc21 (centres undefined)	Not Active	> 25 µM	
O=C(OCc1ccc2c(c1)OCO2)C(c1ccc2c(c1)OCO2)c1c2ccccc2nc2ccccc12 (centres undefined)	Not Active	33 µM	
COC(=O)C(c1ccc2c(c1)OCO2)c1c2c(nc3ccccc13)CCCC2 (centres undefined)	Not Active		
COC(=O)C(c1ccc2c(c1)OCO2)c1cc(C)nc2ccccc12 (centres undefined)	Not Active	61 µM	
COC(=O)C(c1ccc2c(c1)OCO2)c1c2ccccc2nc2c(OC)c(OC)ccc12 (centres undefined)	Not Active	> 25 µM	
O=CC(c1ccc2c(c1)OCO2)c1c2ccccc2nc2ccccc12 (centres undefined)	Not Active		
COC(=O)C(Oc1c2ccccc2nc2ccccc12)c1ccc2c(c1)OCO2 (centres undefined)	Not Active		
NC(=O)C(c1ccc2c(c1)OCO2)c1c2ccccc2nc2ccccc12 (centres undefined)	Not Active		
Cc1cc(C(C(N)=O)c2ccc3c(c2)OCO3)c2ccccc2n1 (centres undefined)	Not Active	37 µM	
COC(=O)C(c1ccc(OC)cc1)c1c2ccccc2nc2ccccc12 (centres undefined)	Not Active	> 25 µM	
COC(=O)C(c1ccc2c(c1)OCO2)c1cc(-c2ccccc2)nc2ccccc12 (centres undefined)	Not Active	> 25 µM	
COC(=O)C(c1ccc2c(c1)OCO2)c1c2ccccc2nc2ccccc12 (centres undefined)			> 250 µM
COC(=O)C(c1ccc(Cl)c(Cl)c1)c1c2ccccc2nc2ccccc12 (centres undefined)	Not Active	> 25 µM	
COC(=O)C(c1ccc2c(c1)OC(C)(C)O2)c1c2ccccc2nc2ccccc12 (centres undefined)	Not Active	> 25 µM	
COC(=O)C(Cc1c2ccccc2cc2ccccc12)c1ccc2c(c1)OCO2 (centres undefined)	Not Active	76 µM	
OCC(c1ccc2c(c1)OCO2)c1c2ccccc2nc2ccccc12 (centres undefined)	Not Active	0.9 µM	
COC(=O)C(c1ccc([N+](=O)[O-])cc1)c1c2ccccc2nc2ccccc12 (centres undefined)	Not Active	> 25 µM	
COC(=O)C(c1ccc(OC)c(OC)c1)c1c2ccccc2nc2ccccc12 (centres undefined)	Not Active	> 25 µM	
O=C(OCc1ccccc1)C(c1ccc2c(c1)OCO2)c1c2ccccc2nc2ccccc12 (centres undefined)	Not Active	57 µM	
CC(C)(C)c1ccc(COC(=O)C(c2ccc3c(c2)OCO3)c2c3ccccc3nc3ccccc23)cc1 (centres undefined)	Not Active	> 25 µM	
c1ccc2c(Cc3ccc4c(c3)OCO4)c3ccccc3nc2c1	Not Active	> 25 µM	
COC(=O)C(c1ccc2c(c1)OCO2)c1c2ccccc2[n+]([O-])c2ccccc12 (centres undefined)	Not Active	> 25 µM	
COC(=O)C(c1ccc(Cl)cc1)c1c2ccccc2nc2ccccc12 (centres undefined)	Not Active	> 25 µM	
COC(=O)C(c1ccc2c(c1)OCO2)C(c1ccccc1)c1ccccc1 (centres undefined)	Not Active	> 25 µM	
